Measured values from US20220168384A1, “Anti-Bacterial Combination Therapy” (McMaster University, priority 2019, published 2022).
Where “and” joins values, the source holds several entries; their conditions need not be identical. Identical values can stand only once.

Key:
P. aeruginosa PAO1 = experiment: TS dose response assay (biofilm and planktonic growth); assay type: cell-based, Pseudomonas aeruginosa
Experimental: Briefly, P. aeruginosa was inoculated in 5 mL of LB and grown at 37° C. overnight, shaking at 200 rpm, and subsequently standardized to an OD600 of ˜ 0.1 in 10:90. For the initial screen, 1 mM compound stocks in DMSO were diluted 1:100 in standardized cell suspension (1.5 μL of compound stock in 148.5 μL of cell suspension) to a final concentration of 10 μM. Control wells contained 10:90 plus 1% DMSO (sterility control) or standardized cell suspension plus 1% DMSO (growth control). Biofilms were formed on polystyrene peg lids (Nunc). After placement of the peg lid, the plate was sealed with parafilm to prevent evaporation and incubated for 16 h at 37° C., 200 rpm. Following incubation, the 96-peg lid was removed and planktonic density in the 96 well plate measured at OD600 to assess the effect of test compounds on bacterial growth. The lid was transferred to a new microtiter plate containing 200 μl of 1× phosphate-buffered saline (PBS) per well for 10 min to wash off any loosely adherent bacterial cells, then to a microtiter plate containing 200 μL of 0.1% (wt/vol) crystal violet (CV) per well for 15 min. Following staining, the lid was washed with 70 mL of dH2O, in a single well tray, for 10 min. This step was repeated four times to ensure complete removal of excess CV. The lid was transferred to a 96-well plate containing 200 μL of 33% (vol/vol) acetic acid per well for 5 min to elute the bound CV. The absorbance of the eluted CV was measured at 600 nm (BioTek ELx800), and the results plotted as percent of the DMSO control using Prism (Graphpad). Screens were performed in duplicate. […]. Compounds of interest were further evaluated using the same assay but over a wider range of concentrations (dose-response assay). […].
For TS dose response assays, TS stock solutions were diluted in DMSO and 2 μL of the resulting solutions plus 148 μL of a bacterial suspension standardized to an OD600 of ˜0.1 in 10:90 were added to a 96 well plate in triplicate, as described above. Control wells contained 148 μL of 10:90+1.3% DMSO (sterility control) or standardized bacterial suspension+1.3% DMSO (growth control). For ethylenediamine-N,N′-bis(2-hydroxyphenylacetic acid) (EDDHA) alone or with FeCl3 experiments, 2 μL of each were added as aqueous solutions to reach final concentrations of 0.1 μM EDDHA and 100 μM FeCl3, and the amount of bacterial suspension adjusted to keep the total well volume at 150 μL. Controls for EDDHA and FeCl3 were 2 μL of sterile dH2O. Biofilms were grown for 16 h at 37° C., 200 rpm, then stained and quantified as described above. Assays were performed in triplicate and results were graphed using Prism (Graphpad) as a percentage of the DMSO control.
Deletion mutants lacking the outer membrane components of the 4 major resistance-nodulation-division (RND) efflux systems of P. aeruginosa (MexAB-OprM, MexXY-OprM, MexCD-OprJ, and MexEF-OpmD) were generated. Briefly, the pairs of primers listed in Table 3 were used to amplify regions up- and downstream of the gene to be deleted. The PCR products were digested with the restriction enzymes indicated in the primer sequences and the resulting fragments ligated into the suicide vector pEX18Gm. After DNA sequencing validation of the constructs, they were introduced into E. coli SM10 for biparental mating into P. aeruginosa PAO1. Mating mixtures were plated on Pseudomonas isolation agar containing 200 μg/ml gentamicin (Gm) to counterselect the donor. Gm-sensitive double recombinants were selected on LB agar, with no salt and with 5% (wt/vol) sucrose. Gm-sensitive deletion mutants were identified by PCR and validated by DNA sequencing of the deletion junction.

E. coli BW25113 = experiment: Thiostrepton susceptibility of E. coli in MHB versus 10:90; assay type: cell-based, Escherichia coli; conditions: 10:90 medium; up to 10 μM (17 μg/ml) TS
Description: The susceptibility of P. aeruginosa PA14, E. coli BW25113, A. baumannii C0286, and S. aureus USA300 was compared in MHB versus 10:90 medium. E. coli lacks FpvAB and is resistant to TS in both media.

P. aeruginosa PA14 = experiment: Checkerboards pinned to LB agar (bactericidal activity); assay type: cell-based, Pseudomonas aeruginosa; conditions: overnight 37° C.
Experimental: Checkerboards were pinned to LB agar plates using a sterile 96 pin tool. Plates were incubated overnight at 37° C. Independent experiments were conducted 3 times and a representative plate is shown.

[1] = PAO1, 10:90 medium, dose-dependent, up to 10 μM TS

C=C(NC(=O)C(=C)NC(=O)c1csc(C2=N[C@@H]3c4csc(n4)[C@H]4NC(=O)c5csc(n5)[C@H]([C@](C)(O)[C@@H](C)O)NC(=O)[C@H]5CSC(=N5)/C(=C/C)NC(=O)[C@H]([C@@H](C)O)NC(=O)c5csc(n5)[C@]3(CC2)NC(=O)[C@H](C)NC(=O)C(=C)NC(=O)[C@H](C)NC(=O)[C@H]([C@@H](C)CC)N[C@@H]2C=Cc3c([C@H](C)O)cc(nc3[C@H]2O)C(=O)O[C@@H]4C)n1)C(N)=O [TS, thiostrepton]
planktonic cell density and biofilm stimulation with EDDHA and FeCl3 (P. aeruginosa PAO1; PAO1, 10:90 + 0.1 μM EDDHA + 100 μM FeCl3): increased planktonic cell density and reduced biofilm stimulation | biofilm stimulation and growth inhibition with EDDHA (P. aeruginosa PAO1; PAO1, 10:90 + 0.1 μM EDDHA versus 10:90 alone): shifted biofilm stimulation and growth inhibition to lower concentrations of TS | biofilm formation (P. aeruginosa PAO1; [1]): stimulated biofilm formation | planktonic cell density (P. aeruginosa PAO1; [1]): decreased planktonic cell density | TS concentrations at which planktonic cell density decreased to below the level of detection (P. aeruginosa PAO1; PAO1, VBMM): > 0.63 µM | TS susceptibility on supplementation with casamino acids (P. aeruginosa PAO1; PAO1, VBMM + 0.1% casamino acids): no change in TS susceptibility | TS susceptibility on supplementation with MgCl2 (P. aeruginosa PAO1; PAO1, VBMM + 100 mM MgCl2): no effect on susceptibility | TS susceptibility of mutants lacking the major efflux pumps (P. aeruginosa PAO1; PAO1 efflux deletion mutants): near-wild-type susceptibility | TS susceptibility on deletion of peptide transport systems (P. aeruginosa PAO1; simultaneous deletion of components of Opp (Npp) and Spp): no effect on TS susceptibility | growth (E. coli BW25113): unaffected | mode of activity of compound alone (P. aeruginosa PA14): bacteriostatic | solubility (physchem): 10 µM and 17 µg/mL
